This note sets out measurements from patent US12016834B2, “Small molecule inhibitors of SLC25A1” (GEORGETOWN UNIVERSITY, priority 2017, dated 2024).

Series [1] relates to MP1 cells. In words: Self-renewal and sphere forming in methylcellulose. Type of series: cell-based, human. Particulars: semi-solid media. How it is done: (§1) Self-renewal assays. Tumor cells cultured as spheroids were dissociated and diluted in 2× sphere media containing 1% methyl cellulose, which was previously dissolved in cold DMEM/F12 media. Either 200, 500, or 1000 cells were then plated in each 96 well and were incubated in the presence or absence of drugs, as indicated. The spheres were allowed to form for a period of a week to ten days, at which point they were counted. Six biological replicates were used for quantification of the results.
(§2) Primary lung cancer cultures and GMSC. Surgical samples were minced and digested with dispase (50 U/ml) in DMEM media containing 5% serum for 1 hour. Pleural effusions were centrifuged, washed once in PBS, and then plated. All primary cultures were initially grown on 6-well plates pre-coated with 2% Geltrex (Life Technologies; Carlsbad, CA) and 1% Maxgel (Sigma Aldrich). Maxgel is a humanized matrix, native and non-denatured. The inclusion of Maxgel in the system enhanced the initial attachment of primary tumor cells, partially because Maxgel provides a more natural ECM conformational substrate. The day after plating, the media containing unattached cells was typically transferred to a fresh plate, in most of cases generating new attached cultures. […]

Series [2] concerns MP2 cells. Briefly: Self-renewal and sphere forming in methylcellulose. Type of series: cell-based, human. Particulars: semi-solid media. The protocol:
as §1, §2

Series [3] relates to MP1 cells. Briefly: Viability (Crystal Violet) and drug interaction (R index). Type of series: cell-based, human. The protocol: (§3) Cellular proliferation and cytotoxicity assays. […] The cells were then washed with 1×PBS and fixed with cold 100% methanol at−20° C. for 20 minutes. Methanol was washed off and the cells were stained with 0.5% crystal violet dissolved in 25% methanol and water at 4° C. for 20 minutes. The staining was washed off using deionized (DI) water and the plate was dried overnight. On the second day, 100 mM sodium citrate in 50% ethanol and 50% water was added to the wells and absorbance at 550 nm was measured and corrected with readings at 405 nm. In other experiments, cell viability was assessed by trypan blue exclusion and visual count of the live cells was performed.
(§4) Statistical methods for drug interactions. […] Sexp/Sobs=1.0 denotes an additive interaction, while >1.0 denotes a synergistic interaction. R index values approaching 2.0 are indicative of strong synergy.

Series [4] relates to MP3 cells. The description is as above. Type of series: cell-based, human. The conditions noted are these: CTPI-2 with either cisplatin or AZD9291, 5 days. The protocol: as §3, §4
The subject of series [5] is MP2 cells. The description is as above. Type of series: cell-based, human. The conditions noted are these: CTPI-2 with either cisplatin or AZD9291, 5 days. The protocol: as §3, §4
The subject of series [6] is MP1 cells. In words: Tumor xenograft in immuno-compromised mice. Type of series: in vivo. How it is done: (§5) Mice and treatments. To produce tumor xenografts, 5×10^6 cells derived from either monolayer cultures or GMSC expanded spheres were dissociated with Accutase, resuspended in PBS, and injected subcutaneously in the flanks of female balb athymic mice. Once detectable tumors started to form, their sizes were measured with a caliper in three dimensions and mice were randomized in the different treatment groups. […] Cisplatin was administered at 26 mg/kg every three or four days. AZD9291 was administered at 25/mg/Kg every 3 days. Serial measurements were made every day after the identification of the initial tumor mass to determine growth curves in vivo. Tumor volume was calculated using the formula for a prolate spheroid: volume=[…], where a is the width and b is the length. All animals were sacrificed when the tumors exceeded 1.5 cm. At the completion of experiments, tumors were excised, weighed, and the statistical significances of differences in tumor volume were assessed. Animals were monitored once a week for the presence of signs of disease, particularly neurological disturbances or weight loss, and they were weighed periodically.
(§6) Statistics. For the animal studies, power calculations for each treatment group were first determined. The number of animals was calculated to detect a 50% difference at alpha=0.05 and power=0.8. Statistical significance was assessed using both unpaired, two-tailed Student t test, and analysis of variance (ANOVA). Significant differences are indicated using the standard […] scale (P<0.05, significant; P<0.01, highly significant; P<0.001, extremely significant).

For series [7], the system named is MP2 cells. In words: Tumor xenograft in immuno-compromised mice. Type of series: in vivo. The conditions noted are these: co-treatment with AZD9291, relative to AZD9291 alone. How it is done: as §5, §6
In series [8] the test system is H1299 cells. Briefly: Sphere forming / self-renewal assay. Type of series: cell-based, human. How it is done: Growth of monolayers and sphere cultures. Tumor cell lines were grown as monolayers in complete Dulbecco's Modified Eagle's Media (DMEM, Gibco; supplemented with 10% fetal bovine serum and 1% of 5,000 units/mL of penicillin-streptomycin (pen-strep), Gibco). To generate spheroids, cells were grown in Falcon bacteriological petri dishes coated with 2% poly(2-hydroxyethyl methacrylate) dissolved in 100% ethanol. The growth media was DMEM/F12 (Gibco) supplemented with 20 ng/mL of epidermal growth factor (EGF), 5 ng/mL of fibroblast growth factor, 0.375% 100× N2 supplements (Gibco), and 1% pen-strep. Monolayer cells were dissociated using 0.25% trypsin-edta (Gibco), whereas spheroid cultures were dissociated using StemPro Accutase (Gibco). Patient derived cell lines were grown as described below in the primary lung cultures section.
as §1

The subject of series [9] is H1299 spheres. Briefly: Cell cycle analysis of spheres. Type of series: cell-based, human. The conditions noted are these: after three days of treatment. The protocol: Flow cytometry. Tumor cells were trypsinized and washed in 1×PBS. The cells were then stained with the antibodies of choice: CD166-PE (Biolegend), CD133-647 (Biolegend), or CD44 (Biolegend), in 1% BAS-PBS. The cell cycles of monolayers or spheres of the cells were analyzed by fixing the cells in cold 75% ethanol. The annexin V (Biolegend) and propidium iodide (Biolegend) experiments were carried out.

As for `O=C(O)c1ccccc1NS(=O)(=O)c1ccc(Cl)c([N+](=O)[O-])c1` [CTPI-2], the “self-renewal and sphere forming ability” value in series [1] is “blunted self-renewal and sphere forming ability”; in [2], “blunted self-renewal and sphere forming ability”. In addition, the “re-sensitization, type of drug interaction (R index)” value in [3] (CTPI-2 with either cisplatin or AZD9291, 5 days) is reported as “starkly synergistic”; in [4], “starkly synergistic”; in series [5] it was “starkly synergistic”. Moreover, the “sensitivity of a single cisplatin-resistant clone” value in [3] (co-treatment with cisplatin (FIG. 15D)) is “re-sensitized to cisplatin”. The “tumor growth inhibition, single agent” value in series [6] (26 mg/Kg alternate days i.p., GMSC-derived versus monolayer-derived tumors) is “more effective in inhibiting the growth of GMSC-derived MP1 tumors”. Moreover, the body weights result in [6] (26 mg/Kg at alternate days intra-peritoneally) is on record as “remained unchanged”. Besides, in series [6] (26 mg/Kg at alternate days intra-peritoneally, entire treatment period), the tolerability result is listed as “well tolerated”. Further, the figures for the “tumor growth inhibition, combination” value in [6] (CTPI-2 added to the cisplatin regimen) and in [7] were “very significant” and “prominent enhancement of tumor growth inhibition”, respectively. Further, the “stem cell markers in tumors (immuno-blot)” value in [6] (GMSC-derived tumors (FIG. 7F)) is “dramatic reduction”. Further, the tumor doubling times entry in series [6] (relative to mock- and cisplatin-treated groups) was “significantly extended the tumor doubling times”. Further, the “sphere forming capacity, compared with CTPI-1” value in series [8] (FIG. 2E) is recorded as “inhibited sphere forming capacity more efficiently than CTPI-1”. The “activity in spheres versus 2D/monolayer cultures” value in [8] (sphere forming assay compared with monolayer) is “significantly more prominent in spheres than in 2D cultures”. Further, the “cell cycle effect in spheres” value in series [9] is listed as “modestly cytostatic”.
